# Experimental data from paper PMC4102417 (PLoS Neglected Tropical Diseases, 2014).
# Where a name gives a salt, the structure may show the parent alone. Read-outs that look alike come from different tables or passages of the source.
# Columns and labels:
# [1] = test system: T. cruzi (Tulahuen strain); experiment: microbe, parasite or virus in culture; format: cell-based, Trypanosoma cruzi; settings: for activity at 10 µM: 120 h, read-out: T. cruzi % growth @ 10 uM (Amastigotes); for EC50: read-out: T. cruzi EC50
# How it was run: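 Tulahuen parasites expressing beta-galactosidase were added (1×10^4 trypomastigotes/well) to 3T3 fibroblasts plated 24 h earlier, 4 h before compound (10 µM final).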
# [2] = test system: 3T3 fibroblast cells; experiment: cells; format: cell-based, murine; settings: for activity at 10 µM: Mus musculus, NIH3T3, 72 h, read-out: Mammalian (3T3) cell % growth at 10 uM
# [3] = Trypanosoma cruzi, TULAHUEN, Fibroblast, Table S2
# [4] = Trypanosoma cruzi, TULAHUEN, Fibroblast, Table S1
# [5] = Trypanosoma cruzi, TULAHUEN, Fibroblast, Table S2, amastigotes
# [6] = Trypanosoma cruzi, TULAHUEN, Fibroblast
SMILES,"activity at 10 µM [1, 3] [%]","activity at 10 µM ([2]; 10 uM, Table S2) [%]",other results
"CC(CC(O)C1OC1(C)C)C1CCC2(C)C3=CCC4C(C)(C)C(=O)CCC4(C)C3CCC12C (stereo not drawn) [NILOTICIN, 14-[4-(3,3-dimethyloxiran-2-yl)-4-hydroxybutan-2-yl]-2,6,6,11,15-pentamethyltetracyclo[8.7.0.0^{2,7}.0^{11,15}]heptadec-9-en-5-one]",2.2,100,–
"CN1CCc2c(c3ccccc3n2Cc2ccccc2)C1.O=S(=O)(O)c1cccc2c(S(=O)(=O)O)cccc12 [MEBHYDROLIN NAPHTHALENESULFONATE, 5-benzyl-2-methyl-1H,2H,3H,4H,5H-pyrido[4,3-b]indole; naphthalene-1,5-disulfonic acid]",–,–,"T. cruzi % growth @ 10 uM (Amastigotes) ([1]; Table S2): 3.3%; Mammalian (3T3) cell % growth at 10 uM ([2]; 10 uM, Table S2): 100%"
"N#Cc1nn(-c2c(Cl)cc(C(F)(F)F)cc2Cl)c(N)c1[S+]([O-])C(F)(F)F (stereo not drawn) [FIPRONIL, 5-amino-1-[2,6-dichloro-4-(trifluoromethyl)phenyl]-4-(trifluoromethane)sulfinyl-1H-pyrazole-3-carbonitrile]",3.7,100,–
"CN1CCC(=C2c3ccccc3Sc3ccccc32)CC1 [PIMETHIXENE, 1-methyl-4-(9H-thioxanthen-9-ylidene)piperidine]",3.9,98.5,–
"COc1ccc2c(c1)[nH]c1c(C)nccc12 [HARMINE, 7-methoxy-1-methyl-9H-pyrido[3,4-b]indole]",7.5,87.2,–
"Cc1cccc2c3c(ccc12)C1=C(C(=O)C3=O)C(C)CO1 (stereo not drawn) [DIHYDROTANSHINONE I, 6,14-dimethyl-12-oxatetracyclo[8.7.0.0^{2,7}.0^{11,15}]heptadeca-1(10),2(7),3,5,8,11(15)-hexaene-16,17-dione]",4.8,77.1,–
COc1c(CC(=O)c2cc3c(cc2O)OC(C)(C)C(O)C3)ccc2c1C=CC(C)(C)O2 (stereo not drawn) [DIHYDROMUNDULETONE],4.4,81.3,–
"CCN(CCO)CCCC(C)Nc1ccnc2cc(Cl)ccc12 (stereo not drawn) [HYDROXYCHLOROQUINE SULFATE, 2-({4-[(7-chloroquinolin-4-yl)amino]pentyl}(ethyl)amino)ethan-1-ol; sulfuric acid]",–,–,"activity at 10 µM [1, 4]: 0.1%; EC50 [1, 5]: 4.64 µM; activity at 10 µM ([2]; 10 uM, Table S1): 100%"
"NC(=O)c1cc([N+](=O)[O-])cc([N+](=O)[O-])c1 [NITROMIDE, 3,5-dinitrobenzamide]",–,–,"T. cruzi % growth @ 10 uM (Amastigotes) ([1]; Table S2): 1.9%; EC50 ([1]; Table S2, amastigotes): 4.8 µM; Mammalian (3T3) cell % growth at 10 uM ([2]; 10 uM, Table S2): 97.2%"
"COc1cc2nc(N3CCN(C(=O)c4ccco4)CC3)nc(N)c2cc1OC [PRAZOSIN HYDROCHLORIDE, 2-{4-[(furan-2-yl)carbonyl]piperazin-1-yl}-6,7-dimethoxyquinazolin-4-amine hydrochloride]",1.8,70.7,"EC50 [1, 5]: 8.36 µM; EC50 [1, 6]: < 10 µM"
"CSc1ccc2c(c1)C(N1CCN(C)CC1)Cc1ccccc1S2 (stereo not drawn) [METHIOTHEPIN, (2Z)-but-2-enedioic acid; 1-methyl-4-[6-(methylsulfanyl)-2-thiatricyclo[9.4.0.0^{3,8}]pentadeca-1(15),3,5,7,11,13-hexaen-9-yl]piperazine]",4.4,69.6,–
"COc1ccc2cc3[n+](cc2c1OC)CCc1cc2c(cc1-3)OCO2 [BERBERINE, 16,17-dimethoxy-5,7-dioxa-13$l^5-azapentacyclo[11.8.0.0^{2,10}.0^{4,8}.0^{15,20}]henicosa-1(21),2,4(8),9,13,15,17,19-octaen-13-ylium]",4.1,75.8,–
"COC(=O)CCC(C)C1CCC2C3C(O)CC4CC(O)CCC4(C)C3CC(O)C12C (stereo not drawn) [CHOLIC ACID, METHYL ESTER, methyl 4-{5,9,16-trihydroxy-2,15-dimethyltetracyclo[8.7.0.0^{2,7}.0^{11,15}]heptadecan-14-yl}pentanoate]",22.6,81,–
"COc1ccc2c(c1)OCC(Cc1ccc(OC)c(OC)c1)C2=O (stereo not drawn) [3-[(3,4-dimethoxyphenyl)methyl]-7-methoxy-3,4-dihydro-2H-1-benzopyran-4-one]",8.3,84.5,–
COc1ccc2c(c1)OC/C(=C/c1ccc(OC)c(OC)c1)C2=O [SAPPANONE A TRIMETHYL ETHER],7.5,74.6,–
"O=c1c(O)c(-c2ccc(O)c(O)c2)oc2c(OC3OC(CO)C(O)C(O)C3O)c(O)cc(O)c12 (stereo not drawn) [GOSSYPIN, 2-(3,4-dihydroxyphenyl)-3,5,7-trihydroxy-8-{[3,4,5-trihydroxy-6-(hydroxymethyl)oxan-2-yl]oxy}-4H-chromen-4-one]",17.7,100,–
"COc1ccc(-c2oc3ccccc3c(=O)c2O)cc1OC [3-HYDROXY-3',4'-DIMETHOXYFLAVONE]",5.2,99.2,–

SMILES,"activity at 10 µM [1, 3] [%]","activity at 10 µM ([2]; 10 uM, Table S2) [%]",other results
"COC(=O)C1(C)CCCC2(C)c3ccc(C(C)C)cc3C(=O)CC12 (stereo not drawn) [7-OXOC[…], METHYL ESTER, methyl 1,4a-dimethyl-9-oxo-7-(propan-2-yl)-1,2,3,4,4a,9,10,10a-octahydrophenanthrene-1-carboxylate]",5.1,91.8,–
"CC(Cc1cccc(C(F)(F)F)c1)NCCOC(=O)c1ccccc1 (stereo not drawn) [BENFLUOREX, 2-({1-[3-(trifluoromethyl)phenyl]propan-2-yl}amino)ethyl benzoate]",21.6,96.6,–
"COc1ccc(-c2cc(=O)c3ccccc3o2)cc1OC [3',4'-DIMETHOXYFLAVONE, 2-(3,4-dimethoxyphenyl)-4H-chromen-4-one]",24,86.4,–
"CNc1ccc(C(=O)CC(O)CCC(C)C2OC(=O)CC(O)CC(=O)CC(O)CC(O)CC(O)CC(O)CC3(O)CC(O)C(C(=O)OC)C(CC(O[C@@H]4O[C@H](C)[C@@H](O)[C@H](N)[C@@H]4O)/C=C/C=C/C=C/C=C\C=C/C=C/C=C/C2C)O3)cc1 (stereo partly drawn) [MEPARTRICIN, methyl (19E,21E,23Z,25Z,27E,29E,31E)-33-{[(2R,3S,4S,5S,6R)-4-amino-3,5-dihydroxy-6-methyloxan-2-yl]oxy}-1,3,5,7,9,13,37-heptahydroxy-17-{5-hydroxy-7-[4-(methylamino)phenyl]-7-oxoheptan-2-yl}-18-methyl-11,15-dioxo-16,39-dioxabicyclo[33.3.1]nonatriaconta-19,21,23,25,27,29,31-heptaene-36-carboxylate]",2.6,97.3,–
"CN(C)CCCN1c2ccccc2Sc2ccc(Cl)cc21 [CHLORPROMAZINE, [3-(2-chloro-10H-phenothiazin-10-yl)propyl]dimethylamine]",14.2,99.3,–
"Clc1ccc(COC(Cn2ccnc2)c2ccc(Cl)cc2Cl)cc1 (stereo not drawn) [ECONAZOLE, 1-{2-[(4-chlorophenyl)methoxy]-2-(2,4-dichlorophenyl)ethyl}-1H-imidazole]",2.4,100,–
CC(=O)O[C@@H]1CC2C(C)(C)[C@H](O)CC[C@]2(C)C2CC[C@@]3(C)[C@H](c4ccoc4)OC(=O)C4OC43[C@@]21C (stereo partly drawn) [alpha-DIHYDROGEDUNOL],–,–,"T. cruzi % growth @ 10 uM (Amastigotes) ([1]; Table S2): 3.8%; Mammalian (3T3) cell % growth at 10 uM ([2]; 10 uM, Table S2): 90.8%"
"CC(=O)OC1(C(C)=O)CCC2C3C=C(Cl)C4=CC(=O)CCC4(C)C3CCC21C (stereo not drawn) [CHLORMADINONE ACETATE, 14-acetyl-8-chloro-2,15-dimethyl-5-oxotetracyclo[8.7.0.0^{2,7}.0^{11,15}]heptadeca-6,8-dien-14-yl acetate]",9.7,97.4,–
"C#C[C@]1(O)CC[C@H]2[C@@H]3CCC4=Cc5oncc5C[C@]4(C)[C@H]3CC[C@@]21C [DANAZOL, (1S,2R,13R,14S,17R,18S)-17-ethynyl-2,18-dimethyl-7-oxa-6-azapentacyclo[11.7.0.0^{2,10}.0^{4,8}.0^{14,18}]icosa-4(8),5,9-trien-17-ol]",0.9,90.2,"EC50 [1, 5]: 6.97 µM"
"CC1(C)C=CC(=O)C2(C)C1CC(=O)C1(C)C2CCC2(C)C(c3ccoc3)OC(=O)C3OC321 (stereo not drawn) [DEACETOXY-7-OXISOGEDUNIN, 7-(furan-3-yl)-1,8,12,16,16-pentamethyl-3,6-dioxapentacyclo[9.8.0.0^{2,4}.0^{2,8}.0^{12,17}]nonadec-14-ene-5,13,19-trione]",3.9,100,–
"CN1CCCC(n2nc(Cc3ccc(Cl)cc3)c3ccccc3c2=O)CC1 (stereo not drawn) [AZELASTINE HYDROCHLORIDE, 4-[(4-chlorophenyl)methyl]-2-(1-methylazepan-4-yl)-1,2-dihydrophthalazin-1-one hydrochloride]",1.5,95.1,"EC50 [1, 6]: 2.2 µM"
"CCN(CC)C(=S)SSC(=S)N(CC)CC [N,N-diethyl[(diethylcarbamothioyl)disulfanyl]carbothioamide]",–,–,"activity at 10 µM [1, 4]: 0.3%; activity at 10 µM ([2]; 10 uM, Table S1): 0.1%"
"C=C(C)C1CCC2(CO)CCC3(C)C(CCC4C5(C)CCC(O)C(C)(C)C5CCC43C)C12 (stereo not drawn) [BETULIN, 5-(hydroxymethyl)-1,2,14,18,18-pentamethyl-8-(prop-1-en-2-yl)pentacyclo[11.8.0.0^{2,10}.0^{5,9}.0^{14,19}]henicosan-17-ol]",9.7,100,–
"O=c1c(O)c(-c2ccccc2)oc2ccccc12 [3-HYDROXYFLAVONE, 3-hydroxy-2-phenyl-4H-chromen-4-one]",4.1,85.7,–
"O=C(O)CC[N+](=O)[O-] [BOVINOCIDIN, 3-nitropropanoic acid]",14.1,–,activity at 10 µM [2]: 88.6%
COc1ccc2c(c1)OC[C@@H](Cc1ccc(OC)c(OC)c1)[C@@H]2O [3-DESHYDRO[…] ETHER],24.9,80.4,–
